Assay results from US12478625B2, “Pharmaceutical compositions and crushable tablets including amorphous solid dispersions of dasatinib and uses” (Handa Therapeutics, LLC, priority 2021, dated 2025).

What was measured:
Details in all cases: promptly after spray drying and vacuum drying
[1] = Assay / total impurities by HPLC on stability; type: physicochemical
Method: (§1) ASDs stored at 25° C./60% RH and 25° C./protected were additionally evaluated at 9 months and 12 months.
LOD was evaluated using the Computrac Max 4000, in which approximately 0.5 g of material was spread evenly across the sample pan. Assay/impurities of the ASDs were assessed using the instrument parameters, measurement conditions, and gradient profile specified in Table 11.

[2] = Water content by coulometric Karl Fischer titration; type: physicochemical
[3] = Glass transition temperature by modulated DSC
[4] = Amorphicity / crystallinity by XRD on stability; type: physicochemical
Method: Diffraction patterns were obtained using a Rigaku MiniFlex 600.
The percent of crystallinity was calculated as follows: % crystallinity=area of crystalline peaks/(area of crystalline peaks+amorphous peaks)
as §1
Amorphicity and glass transition temperature were assessed using the methodology described in Example 1.

assay value [1]: 97.4% | Water content [2]: 0.81% | glass transition temperature (Tg) [3]: 125.61 °C | XRD crystallinity [4]: exhibited crystalline character
Structure (SMILES): Cc1nc(Nc2ncc(C(=O)Nc3c(C)cccc3Cl)s2)cc(N2CCN(CCO)CC2)n1 [spray-dried material of 100% dasatinib]
